Reference: article PMC9818021, “Targets, Mechanisms and Cytotoxicity of Half-Sandwich Ir(III) Complexes Are Modulated by Structural Modifications on the Benzazole Ancillary Ligand” (Cancers, 2022)

Tests used:
[1] = Stopped flow kinetics of DMSO substitution by OH-; format: physicochemical
Description: The slow kinetic measurements were performed with the previous spectrophotometer while the fast kinetic measurements were performed in a stopped flow Bio-Logic SFM-300 spectrophotometer with an absorbance detection system and dead time below 3 ms. The kinetic curves, obtained averaging out at least five shots, were analysed with the Jandel (AISN software, Mapleton, OR) fitting package.

A549 cells = test: MTT viability with NAC pre-incubation; format: cell-based, human; settings: NAC 10 mM 2 h pre-incubation, then 24 h
Description: Cytotoxicity. MTT Assay and IC50 estimation. The cytotoxicity of 1[C,NH-Cl], 2[C,NMe-Cl], 3[N,NH-Cl]Cl, 4[N,NMe-Cl]Cl, 5[CNH2,NH-Cl]Cl, 6[CNH2,S-Cl]Cl, 7[CO,NH-Cl] and 8[CO,S-Cl] in A2780, A2780cis, SW480 and A549 carcinoma cells was evaluated by the MTT colorimetric assay. Cells were seeded in 96-well plates at 5000 cells per well and incubated at 37 °C, 5% CO2. After 24 h, the medium was removed and replaced with fresh medium with different concentrations of the compounds under study, and they were incubated for 48 h. Final DMSO concentration was kept below 0.7% in wells. For a negative control, one sequence of cells was left untreated and for vehicle control, cells treated with DMSO were included. For cell viability experiments preincubating with NAC (N-Acetyl-L-Cysteine), the cells were pre-treated with NAC, 10 mM for 2 h before the incubation with complex 1[C,NH-Cl] for 24 h. Then, the medium was removed from the wells, and 100 µL MTT (5 mg/mL) was added. […] Cell growth inhibition was detected by measuring the absorbance of each well at 595 nm using a BioTek Cytation5 microplate reader. […] The percentage of survival cells was calculated using absorbance measurements compared with control and the IC50 estimation using Graph Pad Prism version 6.01.

[2] = test system: gene expression (stress response, apoptosis, cell cycle genes); test: Microarray differential gene expression (Affymetrix Human Gene 2.1 ST); format: cell-based; settings: vs. Control, 6 h after treatment
Description: (§1) DNA damage was measured using EpiQuik 8-OHdG DNA Damage Quantification Direct Kit (colorimetric) (Fischer, Waltham, MA, USA, P600396); The mitochondrial cytochrome C release was evaluated using the “Millipore’s FlowCellect Cytochrome C Kit (Millipore, FCCH100110)”. Lactate dehydrogenase activity release was measured in the culture medium using Cytotoxicity Detection Kit (Roche Diagnostic, Barcelona, Spain, 11 644 793 001). Protein synthesis was determined using Click-iT Plus O-propargyl-puromycin (OPP) Protein Synthesis Assay Kit (Invitrogen™, Waltham, MA, USA). Measurement of GSH/GSSG was determined with GSH/GSSG-Glo Assay (Promega, V6611). Measurements of OCR and ECAR with Seahorse XFp (Agilent Technologies) were determined using the XFp Cell Mito Stress Test Kit (103010-100) and XFp Glycolysis Stress Test Kit (103017-100). ATP measurement was determined with Cell Titer-Glo Luminescent Cell Viability Assay (Promega, Madison, WI, USA, G7570). Determination of DNA damage using phosphorylated H2AX measurement were performed as previously described. Cardiolipin oxidation using the fluorophore Nonyl Acridine Orange (NAO, Thermo Scientific, A1372) was performed as described. Cell viability was determined by Hoechst inclusion and Propidium iodide (PI) exclusion by standard protocols. TEM analysis were performed as described. Cell cycle analysis by flow cytometry and microarrays analysis were performed as described. Arrays data have been deposited in the ArrayExpress database at EMBL-EBI (www.ebi.ac.uk/arrayexpress) under accession number E-MTAB-860 (10 November 2022)
Studies of the effect of 1[C,NH] on gene expression were performed and assessed 6 h after treatment, in a middle phase, when most cells were still alive (see S.I. Movie S2) but already with characteristic morphological features of apoptosis (Movie S1). Gene expression profiles of cells was determined by Affymetrix Human Gene 2.1 ST Array Plate in three independent experiments. In order to confirm the microarray data, we selected some genes involved in several key pathways: stress response, apoptosis and cell cycle to validate the changes in the expression by RT-qPCR. Results indicated a good correlation between microarray analysis and RT-qPCR. (Table S11). […] Note that not all genes are annotated with these databases. However, the negative regulation of metabolic process and negative regulation of macromolecule metabolic process are highly represented, and ~38% (84) of all genes could be classified in this way. […] The effect of 1[C,NH] on cell cycle progression was further assessed by flow cytometry. […] In summary, mRNA expression analysis is in good agreement with the elevation of ROS, oxidative stress response, cell cycle arrest and induction of apoptosis.

BALB/c mice = test: Biodistribution (ICP-MS of organs); format: in vivo, mouse; settings: 4 h after i.v. injection
Description: Biodistribution studies: BALB/c mice were injected via the tail vein with 100 µL of 1[C,NH] dissolved in PBS. Then, 4 h after the injection, the animals (n = 3) were sacrificed, and the following organs were removed: kidney, spleen, liver, heart, lung, pancreas, intestine, ovary and stomach. They were kept at −80 °C until their analysis at the Cactus-Lugo Instrumental Analysis Unit. Solutions were diluted to a final volume of 10 mL MilliQ water and measured on an Agilent 7700x-ICP-MS.

A549-gal cells = test: Seahorse XFp Glycolysis Stress Test (ECAR); format: cell-based, human; settings: 16 µM
Description: Cell culture. Epithelial ovarian carcinoma cells (A2780) that acquired resistance to cisplatin epithelial ovarian carcinoma cells (A2780cis), colon adenocarcinoma cells (SW480) and epithelial lung adenocarcinoma cells (A549) were provided by Sigma Aldrich. A549 and SW480 cells were grown in Dulbecco′s Modified Eagle′s Medium (DMEM), supplemented with 10% Fetal Bovine Serum (FBS) and 1% penicillin, streptomycin and 1% glutamine for A549 and 1% amphotericin B for SW480. The A2780 and A2780cis were grown in RPMI 1640 supplemented with 10% Fetal Bovine Serum (FBS), 1% glutamine and 1% penicillin, streptomycin and amphotericin B. All cells were incubated in a humidified incubator at 37 °C under a 5% CO2 atmosphere and grown in 100 mm culture dishes to approximately 70–80% confluence. For subculturing, cells were detached with Trypsin-EDTA (Sigma). A549-gal were derived from A549 cultured in glucose-free medium supplemented with 10 mM galactose (Sigma) for at least 10 passes.
as §1

SMILES: Cc1c(C)c(C)[c-](C)c1C.[Cl][Ir]1[O]c2ccccc2-c2sc3ccccc3[n+]21 [8[CO,S], [(η^5-Cp*)IrCl(κ^2-O,N-hpbtz)]]
- k (substitution of DMSO by OH-) ([1]; pH = 10.2): 39 s⁻¹
- k (substitution of DMSO by OH-) ([1]; pH = 11.5): 112 s⁻¹

SMILES: Cc1c(C)c(C)[c-](C)c1C.[Cl][Ir]1[c]2ccccc2-c2[nH]c3ccccc3[n+]21 [1[C,NH], [(η^5-Cp*)IrCl(κ^2-N,C-pbim)]]
- Rescue of cytotoxicity by NAC (A549 cells): partial rescue
- ATF3 Microarray (Fold Change (linear)) [2]: 37
- ATP1B2 Microarray (Fold Change (linear)) [2]: 34.8
- BBC3 Microarray (Fold Change (linear)) [2]: 3.3
- BCL2L11 Microarray (Fold Change (linear)) [2]: 5.1
- CHAC1 Microarray (Fold Change (linear)) [2]: 3
- DDIT3 Microarray (Fold Change (linear)) [2]: 23
- EGR1 Microarray (Fold Change (linear)) [2]: > 100
- FOSB Microarray (Fold Change (linear)) [2]: > 100
- HIST1H1B Microarray (Fold Change (linear)) [2]: -6.6
- MIR9-1 Microarray (Fold Change (linear)) [2]: 26.8
- PMAIP1 Microarray (Fold Change (linear)) [2]: 7.1
- PPP1R15A Microarray (Fold Change (linear)) [2]: 11
- SKP2 Microarray (Fold Change (linear)) [2]: -4.7
- Tissues with the highest accumulation (BALB/c mice): liver, kidneys and lungs
- Acute Response, ECAR, Mean (A549-gal cells): 4.17 mpH/min
- Glycolysis, ECAR, Mean (A549-gal cells): 44.81 mpH/min
- Glycolytic Capacity, ECAR, Mean (A549-gal cells): 43.97 mpH/min
- Glycolytic Reserve %, Mean (A549-gal cells): 98.26%
- Glycolytic Reserve, ECAR, Mean (A549-gal cells): 2.48 mpH/min
- Non-Glycolytic Acidification, ECAR, Mean (A549-gal cells): 9.64 mpH/min
